Source: publication PMC12019880 (Frontiers in Pharmacology, 2025)
“And” between values parts separate entries of the source, which are not always exact repeats. Identical values can stand only once.

Tests used:
ryanodine receptor = conditions: ref Ronjat et al., 2016; cited from earlier work
[1] = tested on: TTX-S Na^+ currents from adult mouse DRG neurons
Nav1.7 = conditions: cited from earlier work
N-type calcium channels = conditions: cited from earlier work
hNav1.7 = hNav1.7 (Homo sapiens, UniProt Q15858); assay: automated patch-clamp, hNav1.7 stably expressed in CHO cells; type: cell-based
Chain of hNav1.7 (Q15858 whole entry): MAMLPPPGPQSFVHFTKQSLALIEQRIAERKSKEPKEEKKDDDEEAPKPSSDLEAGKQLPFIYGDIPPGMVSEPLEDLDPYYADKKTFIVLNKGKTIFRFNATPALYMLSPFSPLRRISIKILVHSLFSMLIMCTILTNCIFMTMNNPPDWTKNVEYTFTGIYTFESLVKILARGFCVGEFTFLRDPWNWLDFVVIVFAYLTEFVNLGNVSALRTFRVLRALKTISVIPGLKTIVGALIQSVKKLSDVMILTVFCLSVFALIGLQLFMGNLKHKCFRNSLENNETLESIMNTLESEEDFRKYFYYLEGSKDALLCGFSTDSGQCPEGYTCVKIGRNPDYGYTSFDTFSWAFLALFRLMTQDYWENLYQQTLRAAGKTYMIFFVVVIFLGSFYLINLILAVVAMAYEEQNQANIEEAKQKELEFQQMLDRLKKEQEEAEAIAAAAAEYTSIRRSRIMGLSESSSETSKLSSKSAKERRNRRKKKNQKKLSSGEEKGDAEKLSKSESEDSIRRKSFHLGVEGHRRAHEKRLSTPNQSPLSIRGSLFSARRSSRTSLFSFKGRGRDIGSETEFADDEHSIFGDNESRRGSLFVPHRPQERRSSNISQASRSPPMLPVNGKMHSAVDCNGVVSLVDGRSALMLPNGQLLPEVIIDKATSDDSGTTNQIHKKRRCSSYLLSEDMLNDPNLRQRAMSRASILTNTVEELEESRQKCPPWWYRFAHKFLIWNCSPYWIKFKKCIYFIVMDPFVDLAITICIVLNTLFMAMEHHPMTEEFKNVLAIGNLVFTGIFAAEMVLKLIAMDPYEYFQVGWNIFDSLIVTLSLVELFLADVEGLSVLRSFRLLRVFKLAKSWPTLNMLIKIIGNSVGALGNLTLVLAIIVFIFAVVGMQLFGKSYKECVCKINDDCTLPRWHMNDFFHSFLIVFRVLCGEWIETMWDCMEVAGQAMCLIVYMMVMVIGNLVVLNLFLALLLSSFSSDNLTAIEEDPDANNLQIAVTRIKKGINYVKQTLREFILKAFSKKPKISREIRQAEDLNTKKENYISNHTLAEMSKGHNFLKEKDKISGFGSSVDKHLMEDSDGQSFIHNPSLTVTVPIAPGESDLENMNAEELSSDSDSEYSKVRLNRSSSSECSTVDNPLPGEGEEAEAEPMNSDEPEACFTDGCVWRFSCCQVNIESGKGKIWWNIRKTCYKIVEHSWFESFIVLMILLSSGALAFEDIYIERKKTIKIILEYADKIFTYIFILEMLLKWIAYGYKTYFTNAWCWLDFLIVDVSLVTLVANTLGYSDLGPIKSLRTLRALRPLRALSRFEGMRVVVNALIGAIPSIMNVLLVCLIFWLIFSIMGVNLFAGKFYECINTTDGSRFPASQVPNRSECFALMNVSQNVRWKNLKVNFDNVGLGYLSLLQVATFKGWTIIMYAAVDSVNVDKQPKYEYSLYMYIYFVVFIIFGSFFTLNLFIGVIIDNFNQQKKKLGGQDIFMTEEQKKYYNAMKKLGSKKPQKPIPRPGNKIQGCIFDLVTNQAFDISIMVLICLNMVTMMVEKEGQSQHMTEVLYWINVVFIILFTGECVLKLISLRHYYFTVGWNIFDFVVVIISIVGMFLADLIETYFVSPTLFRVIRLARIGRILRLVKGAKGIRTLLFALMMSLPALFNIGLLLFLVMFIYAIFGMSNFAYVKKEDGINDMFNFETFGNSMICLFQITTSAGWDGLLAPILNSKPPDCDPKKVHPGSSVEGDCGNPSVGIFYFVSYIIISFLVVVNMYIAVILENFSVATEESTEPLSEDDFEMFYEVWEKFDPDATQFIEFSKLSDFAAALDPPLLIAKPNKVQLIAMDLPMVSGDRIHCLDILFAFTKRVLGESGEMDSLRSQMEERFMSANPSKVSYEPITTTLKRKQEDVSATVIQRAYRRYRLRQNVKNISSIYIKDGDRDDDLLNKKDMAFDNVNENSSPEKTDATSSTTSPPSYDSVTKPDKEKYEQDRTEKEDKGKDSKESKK
Experimental: (§1) CHO cells stably expressing hNav1.7 were cultured in Dulbecco’s Modified Eagle’s Medium (DMEM) supplemented with 10% foetal calf serum, 1 mM pyruvic acid, 4 mM glutamine, 10 U/mL penicillin and 10 μg/mL streptomycin (Gibco, Grand Island, NY), and incubated at 37°C in a 5% CO2 atmosphere. For electrophysiological recordings, cells were detached with trypsin and floating single cells were diluted (∼300,000 cells/mL) in medium containing (in mM): 4 KCl, 140 NaCl, five glucose, 10 2-[4-(2-hydroxyethyl)piperazin-1-yl]ethanesulfonic acid (HEPES, pH 7.4, osmolarity 290 mOsm). Similar culturing conditions were used for HEK-293 cell lines expressing hNav1.1, hNav1.2, hNav1.3, hNav1.5 and hNav1.6 channels. The plasmid pcDNA3.1+/C-(K)-DYK (Genscript, Piscataway, New Jersey, USA) was used for transient expression of mNav1.7 in HEK-293T cells using the Maxcyte electroporation system.
(§2) Chips with single-hole and high-resistance 5.14 ± 0.02 MΩ (n = 384) were used for HEK-293 cell recordings. Only cells with seal resistance above 500 MΩ and Rs values <15 MΩ were kept for analyses. All Rs values were compensated at 90%. Voltage pulses and whole-cell recordings were achieved using the PatchControl384 v1.5.3 software (Nanion Technologies, Munich, Germany) and the Biomek v1.0 interface (Beckman Coulter, Villepinte, France). Prior to recordings, dissociated cells were shaken at 60 rpm in a cell hotel reservoir at 10°C. After cell catching, sealing, whole-cell formation, liquid application, recording, and data acquisition were all performed sequentially and automatically. The intracellular solution contained (in mM): 10 KCl, 110 kF, 10 NaCl, 1 MgCl2, 1 CaCl2, 10 Ethylene Glycol Tetraacetic Acid (EGTA) and 10 HEPES (pH 7.2, osmolarity 280 mOsm), and the extracellular solution (in mM): 140 NaCl, 4 KCl, 2 CaCl2, 1 MgCl2, five glucose, and 10 HEPES (pH 7.4, osmolarity 298 mOsm). Whole-cell experiments were done at −100 mV holding potential, while currents triggered at 0 mV test potential were sampled at 10 kHz (sweeps every 8 s). […]

mNav1.7 = target: T1, mNav1.7 (Mus musculus, UniProt Q62205); assay: automated patch-clamp, mNav1.7 electroporated in HEK293 cells; type: cell-based; conditions: mNav1.7 (Figure 4b)
T1 construct: DYK (FLAG) tag of vector pcDNA3.1+/C-(K)-DYK (C); host or cells: HEK-293T cells, Maxcyte electroporation
T1 sequence (Q62205 whole entry): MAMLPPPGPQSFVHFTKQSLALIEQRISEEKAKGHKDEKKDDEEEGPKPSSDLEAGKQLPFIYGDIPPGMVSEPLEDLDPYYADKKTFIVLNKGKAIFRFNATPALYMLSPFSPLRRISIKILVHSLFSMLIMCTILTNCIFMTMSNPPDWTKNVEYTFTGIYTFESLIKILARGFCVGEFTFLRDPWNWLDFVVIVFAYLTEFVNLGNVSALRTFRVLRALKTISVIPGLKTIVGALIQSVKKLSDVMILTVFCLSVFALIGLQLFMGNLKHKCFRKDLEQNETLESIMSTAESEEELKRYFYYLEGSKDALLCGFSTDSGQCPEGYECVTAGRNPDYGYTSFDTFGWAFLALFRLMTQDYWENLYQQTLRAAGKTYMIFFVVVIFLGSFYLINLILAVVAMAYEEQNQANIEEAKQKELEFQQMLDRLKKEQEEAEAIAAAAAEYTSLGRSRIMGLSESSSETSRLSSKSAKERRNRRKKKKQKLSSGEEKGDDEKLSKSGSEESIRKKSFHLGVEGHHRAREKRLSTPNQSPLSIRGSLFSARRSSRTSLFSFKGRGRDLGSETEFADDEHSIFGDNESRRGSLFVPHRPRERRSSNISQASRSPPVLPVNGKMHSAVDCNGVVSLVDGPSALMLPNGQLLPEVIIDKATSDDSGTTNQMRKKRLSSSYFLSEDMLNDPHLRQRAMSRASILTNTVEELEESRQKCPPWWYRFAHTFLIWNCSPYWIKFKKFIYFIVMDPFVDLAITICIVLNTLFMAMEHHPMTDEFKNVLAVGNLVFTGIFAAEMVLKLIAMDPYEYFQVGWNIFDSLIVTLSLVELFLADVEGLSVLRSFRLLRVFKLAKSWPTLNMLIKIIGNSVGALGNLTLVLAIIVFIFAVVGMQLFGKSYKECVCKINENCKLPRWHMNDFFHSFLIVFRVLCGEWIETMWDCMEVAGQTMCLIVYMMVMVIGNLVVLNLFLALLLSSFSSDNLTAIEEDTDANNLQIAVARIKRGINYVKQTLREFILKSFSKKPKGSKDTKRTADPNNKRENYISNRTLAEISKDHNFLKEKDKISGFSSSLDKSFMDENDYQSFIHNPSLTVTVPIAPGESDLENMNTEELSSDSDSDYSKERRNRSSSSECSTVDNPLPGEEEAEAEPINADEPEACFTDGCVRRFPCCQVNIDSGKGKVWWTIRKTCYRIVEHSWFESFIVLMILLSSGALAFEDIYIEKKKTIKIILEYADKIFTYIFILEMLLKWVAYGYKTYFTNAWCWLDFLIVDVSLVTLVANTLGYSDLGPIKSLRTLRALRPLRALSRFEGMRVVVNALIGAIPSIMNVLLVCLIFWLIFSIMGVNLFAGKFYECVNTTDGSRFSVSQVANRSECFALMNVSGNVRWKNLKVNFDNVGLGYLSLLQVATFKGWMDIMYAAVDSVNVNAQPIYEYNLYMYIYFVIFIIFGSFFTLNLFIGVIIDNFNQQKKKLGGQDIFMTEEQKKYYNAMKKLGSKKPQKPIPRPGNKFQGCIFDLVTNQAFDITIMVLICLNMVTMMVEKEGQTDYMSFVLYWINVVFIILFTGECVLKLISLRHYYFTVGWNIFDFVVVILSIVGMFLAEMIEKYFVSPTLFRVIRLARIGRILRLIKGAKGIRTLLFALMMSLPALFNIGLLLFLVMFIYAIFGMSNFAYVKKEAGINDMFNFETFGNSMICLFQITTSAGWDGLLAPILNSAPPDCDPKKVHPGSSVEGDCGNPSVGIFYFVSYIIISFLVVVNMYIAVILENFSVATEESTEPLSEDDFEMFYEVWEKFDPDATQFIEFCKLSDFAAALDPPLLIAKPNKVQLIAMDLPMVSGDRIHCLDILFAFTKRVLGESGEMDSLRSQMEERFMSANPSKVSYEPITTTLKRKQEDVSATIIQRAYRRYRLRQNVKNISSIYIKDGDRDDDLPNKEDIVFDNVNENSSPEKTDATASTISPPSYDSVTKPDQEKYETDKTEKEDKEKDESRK
Experimental: as §1
(§3) Chips with single-hole and high-resistance 5.14 ± 0.02 MΩ (n = 384) were used for HEK-293 cell recordings. Only cells with seal resistance above 500 MΩ and Rs values <15 MΩ were kept for analyses. All Rs values were compensated at 90%. Voltage pulses and whole-cell recordings were achieved using the PatchControl384 v1.5.3 software (Nanion Technologies, Munich, Germany) and the Biomek v1.0 interface (Beckman Coulter, Villepinte, France). […]

hNav1.4 = assay: automated patch-clamp, hNav1.4; type: cell-based, human
Source text: as §2, with “s). Compounds were prepared at various concentrations in the extracellular solution supplemented with 0.3% BSA and distributed in 384-well plates according to a pre-designed template.” for “s).”

hNav1.5 = assay: automated patch-clamp, hNav1.5; type: cell-based, human; conditions: up to 3,300 nM (Figure 4c)
Experimental: as §1, §3

[2] = tested on: mice (adult female Swiss); assay: automated von Frey test (tactile sensitivity); type: in vivo, mouse
[3] = tested on: mice (adult female Swiss); assay: hot-plate test (heat sensitivity); type: in vivo, mouse; conditions: 55.0°C
Source text: (§4) The study was experimentally designed to have group sizes of at least six animals per group, with intravenous injection as an exclusion criterion. In addition, randomization and blinding (one of the two experimenters being blind to treatment group) were undertaken in all animal experiments. […] Prior to testing, each mouse underwent a 20-min acclimation to the experimental laboratory environment (in its home cage).
Each mouse, injected or not with PBS +0.1% BSA or toxin solution in the right hind limb, was put on a hot-plate (HCP No. 35150, Ugo Basile, Italy) set at the temperature of 55.0°C ± 0.2°C 15–30 min after limb injection. The measured parameter as the first pain-related manifestation was the latency (in seconds) for the animal to shake the right hind limb ([Deuis et al., 2017]). This latency, considered as a painful response to heat, was recorded simultaneously by two observers (one being blind to treatment group) with a timer integrated into the set-up. A maximal cut-off time of 30 s was used to prevent tissue damage.

[4] = tested on: mice (adult female Swiss); conditions: mouse, in vivo
Source text: as §4

[5] = tested on: TTX-R Na^+ currents from adult mouse DRG neurons
C57Bl6 mice = conditions: mouse, in vivo, ip
[6] = tested on: Na^+ current of larger diameter DRG neurons; type: cell-based, mouse

For “maurocalcin: a scorpion venom peptide (GDCLPHLKLCKENKDCCSKKCKRRGTNIEKRCR; UniProt P60254 1-33, looked up)”, the “effect of phosphorylation by protein kinase A” value (ryanodine receptor) is listed as “converts the peptide from an allosteric activator to a ryanodine receptor blocker”.
In the case of “protoxin-II: protoxin-II, Nav1.7 selective to a large extent [reference compound]”, the “inhibition of Na+ current” value ([1]; 0.01 µM) is listed as 80% and the Nav1.7 selectivity (Nav1.7) is listed as “Nav1.7 selective to a large extent”.
For ω-conotoxin MVIIA, the “fold better affinity than non-amidated ω-conotoxin MVIIA-Gly-COOH” value (N-type calcium channels) is given as 10 fold.
In the case of `CC[C@H](C)[C@H](NC(=O)[C@H](CCC(N)=O)NC(=O)[C@H](Cc1ccc(O)cc1)NC(=O)[C@H](CCCCN)NC(=O)[C@@H]1CSSC[C@@H]2NC(=O)[C@H](CCC(N)=O)NC(=O)[C@H](CC(=O)O)NC(=O)[C@H](CC(N)=O)NC(=O)[C@H](CO)NC(=O)[C@@H]3CCCN3C(=O)[C@H](CC(N)=O)NC(=O)[C@@H]3CSSC[C@H](NC(=O)[C@H](C(C)C)NC(=O)[C@H](CC(C)C)NC(=O)[C@H](CCCCN)NC(=O)[C@H](CO)NC(=O)[C@H](CO)NC(=O)[C@H](CCCCN)NC(=O)[C@H](CSSC[C@H](NC(=O)[C@@H](N)CCC(=O)O)C(=O)N[C@@H](CC(C)C)C(=O)N[C@@H](CCC(=O)O)C(=O)N[C@@H]([C@@H](C)CC)C(=O)N[C@@H](Cc4ccccc4)C(=O)N[C@@H](CCCCN)C(=O)N[C@@H](C)C(=O)N3)NC2=O)C(=O)N[C@@H](CO)C(=O)N[C@@H](CCCNC(=N)N)C(=O)N[C@@H](CCCCN)C(=O)N[C@@H]([C@@H](C)O)C(=O)N[C@@H](CCCNC(=N)N)C(=O)N[C@@H](Cc2c[nH]c3ccccc23)C(=O)N1)C(=O)NCC(=O)O` [sHwTx-IV GCOOH], the “fold less potent than HwTx-IV on hNav1.7” value (hNav1.7) is reported as 16 fold, the “nH (Hill number)” value (hNav1.7; hNav1.7 (Figure 4c)) is reported as −0.98 and the “nH (Hill number)” value (hNav1.7; hNav1.7 in CHO cells (Figure 4a)) is reported as −0.97. The “nH (Hill number)” value (mNav1.7) was −0.90, the “inhibition of hNav1.4” value (hNav1.4) was “not affected” and the “inhibition of hNav1.5” value (hNav1.5) was “no inhibition up to 3,300 nM”. The “force intensity for hind limb withdrawal” value ([2]; 98 nmol/kg intraplantar, 15–30 min, versus vehicle, P < 0.010) was “significantly (P < 0.010) increased”, the “dose efficiency difference between both peptides, von Frey” value ([2]; 14–98 nmol/kg intraplantar) was “no dose efficiency difference could be observed between both peptides” and the “reaction time to heat (latency to shake hind limb)” value ([3]; 10–98 nmol/kg intraplantar, 15–30 min, versus vehicle, P < 0.050) was “significant (P < 0.050) increase in the reaction time to heat”. The “threshold analgesic dose, hot-plate” value ([3]; intraplantar) was 10 nmol/kg, the death [4] was “absence of death” and the “toxicity (behaviour) after intraplantar injection” value [4] was “no abnormal mice behavior”. For the same compound, the IC50 [1] was 14 nM, the “TTX-S peak current amplitude after wash-out” value [1] was −3.2 ± 0.7 nA and the “TimeA (10% to 90% current increase, activation)” value [1] was 0.31 ± 0.06 ms and 0.27 ± 0.07 ms and 0.28 ± 0.11 ms. For the same compound, the “TimeI (90% to 10% current decrease, inactivation)” value [1] was 6.93 ± 1.23 ms and 6.66 ± 1.42 ms and 6.59 ± 1.24 ms, the “effect on activation or inactivation kinetics” value [1] was “did not alter activation or inactivation kinetics” and the “fold more potent on TTX-S DRG currents than on mNav1.7 currents” value [1] was 11.8 fold. For the same compound, the “fold more potent than HwTx-IV on mouse DRG TTX-S Na+ currents” value [1] was 9.5 fold, the “nH (Hill number)” value [1] was 0.7 and the “reversibility of effect on TTX-S current” value [1] was “reversible”. The “slope (kG) of conductance-voltage curves” value [1] was “slight, but significant (P < 0.002), changes”, the “VI50% (voltage of 50% inactivation)” value ([1]; 13 nM, n = 4) was −82 ± 2 mV and the “VA50% (voltage of 50% maximal conductance)” value ([1]; 13 nM, n = 5) was −32 ± 1 mV. For the same compound, the “block of TTX-S Na+ currents” value ([1]; 130 nM) was “potently blocked”, the “time to stationary TTX-S peak current block” value ([1]; 130 nM, n = 8) was 2.6 ± 0.6 min and the IC50 [5] was 2000 nM. For the same compound, the “nH (Hill number)” value [5] was 0.8, the “block of TTX-R Na+ currents” value ([5]; 130 nM) was “largely sparring” and the “animals with signs of hindlimb weakness” value (C57Bl6 mice) was “Seven out of 10”. For the same compound, the death (C57Bl6 mice) was “none of the animals died”, the distance travelled (C57Bl6 mice) was “unaffected” and the duration of activity (C57Bl6 mice) was “unaffected”. The “number of movements, 60 min” value (C57Bl6 mice) was “accentuated 60 min later”, the “number of movements, first 10 min” value (C57Bl6 mice) was “reduction in the number of movements” and the rearing events (C57Bl6 mice) was “reduced”. For the same compound, the signs of suffering (C57Bl6 mice) was “no signs of suffering”.
For `NC1=N[C@H](O)[C@H]2[C@H]3O[C@]4(O)O[C@@H]([C@@H](O)[C@@]2(N1)[C@@H]4O)[C@]3(O)CO` [TTX, tetrodotoxin, reference compound], the “Na+ current remaining (% of initial peak amplitude)” value [6] was 64.8% ± 4.2 and the “Na+ current remaining (% of initial peak amplitude)” value [1] was 9.5% ± 1.7.
